From a flash point compilation (Sun et al. 2020) come the findings set out here.

Compound `CC(=O)OCC(COC(C)=O)OC(C)=O` [2,3-diacetyloxypropyl acetate] had a flash point of 138.00 °C.

Compound `C=C(C)C(=O)OCC(Br)CBr` (stereo unspecified) [2,3-dibromopropyl 2-methylprop-2-enoate] came in with a flash point of 59.00 °C.

`O=CC(Cl)=C(Cl)C(=O)O` [2,3-dichloro-4-oxobut-2-enoic acid] returned a flash point of 100.00 °C.

The compound `C=C(Cl)CCl` [2,3-dichloroprop-1-ene] displayed a flash point of 10.00 °C.

As to `OCC(Cl)CCl` (stereo unspecified) [2,3-dichloropropan-1-ol], the flash point came out at 91.00 °C.

Take `CC(C)C(C)C` [2,3-dimethylbutane]: the flash point was -29.00 °C.

Consider `CC1OC1C` (stereo unspecified) [2,3-dimethyloxirane], for which the flash point is -18.00 °C.

`CCC(C)C(C)CO` (stereo unspecified) [2,3-dimethylpentan-1-ol] yielded a flash point of 61.00 °C.

On to `C=C(C)CC(C)(C)C` [2,4,4-trimethylpent-1-ene], for which the flash point is 2.00 °C.

Turning to `Cc1cc(C)nc(C)c1` [2,4,6-trimethylpyridine], the flash point was found to be 58.00 °C.

`CN(C)Cc1cc(CN(C)C)c(O)c(CN(C)C)c1` [2,4,6-tris[(dimethylamino)methyl]phenol] showed a flash point of 124.00 °C.

Consider `CCCCCCCCCc1ccc(O)c(CCCCCCCCC)c1` [2,4-di(nonyl)phenol], for which the flash point was found to be 127.00 °C.

Compound `Oc1ccc(Br)cc1Br` [2,4-dibromophenol] yielded a flash point of 113.00 °C.

As for `O=Cc1ccc(Cl)cc1Cl` [2,4-dichlorobenzaldehyde], the flash point was 135.00 °C.

In turn, `Cc1ccc(N)c(C)c1` [2,4-dimethylaniline] had a flash point of 96.00 °C.

The compound `Nc1cc(Cl)ccc1Cl` [2,5-dichloroaniline] showed a flash point of 113.00 °C.

The compound `Cc1ccc(C)o1` [2,5-dimethylfuran] returned a flash point of -1.00 °C.

Compound `CC1CCC2CC1C2(C)C` (stereo unspecified) [2,6,6-trimethylbicyclo[3.1.1]heptane] had a flash point of 40.00 °C.

With `O=Cc1c(Cl)cccc1Cl` [2,6-dichlorobenzaldehyde], the flash point is 135.00 °C.

In turn, `Cc1cccc(C)c1N.Cl` [2,6-dimethylaniline;hydrochloride] displayed a flash point of 91.00 °C.

`CC(C)CC(=O)CC(C)C` [2,6-dimethylheptan-4-one] gave a flash point of 60.00 °C.

Compound `CC(Oc1ccc(Cl)cc1Cl)C(=O)O` (stereo unspecified) [2-(2,4-dichlorophenoxy)propanoic acid] yielded a flash point of 204.00 °C.

On to `CCCCOCCOCCSC#N` [2-(2-butoxyethoxy)ethyl thiocyanate], for which the flash point was determined as 52.00 °C.

In turn, `CCOCCOCCOC(C)=O` [2-(2-ethoxyethoxy)ethyl acetate] returned a flash point of 110.00 °C.

In turn, `CCCCCCOCCOCCO` [2-(2-hexoxyethoxy)ethanol] showed a flash point of 141.00 °C.

In the case of `OCCOCCO` [2-(2-hydroxyethoxy)ethanol], the flash point was 143.00 °C.

In turn, `OCCNCCO` [2-(2-hydroxyethylamino)ethanol] gave a flash point of 137.00 °C.

Compound `Oc1cc(O)c2cc(O)c(-c3cc(O)c(O)c(O)c3)[o+]c2c1.[Cl-]` [2-(3,4,5-trihydroxyphenyl)chromenylium-3,5,7-triol;chloride] yielded a flash point of 193.00 °C.

With `CC(C)=CCC1CCCC1=O` (stereo unspecified) [2-(3-methylbut-2-enyl)cyclopentan-1-one], the flash point was 23.00 °C.

In the case of `OCCN1CC1` [2-(aziridin-1-yl)ethanol], the flash point was 67.00 °C.

With `CCCCN(CCO)CCCC` [2-(dibutylamino)ethanol], the flash point was 99.00 °C.

`CCN(CC)CCO` [2-(diethylamino)ethanol] displayed a flash point of 60.00 °C.

The compound `C=CC(=O)OCCN(CC)CC` [2-(diethylamino)ethyl prop-2-enoate] came in with a flash point of 91.00 °C.

Regarding `CN(C)CCO` [2-(dimethylamino)ethanol], the flash point was found to be 41.00 °C.

In turn, `C=C(C)C(=O)OCCN(C)C` [2-(dimethylamino)ethyl 2-methylprop-2-enoate] returned a flash point of 74.00 °C.

`CCNCCO` [2-(ethylamino)ethanol] yielded a flash point of 71.00 °C.

In turn, `C(OCC1CO1)C1CO1` (stereo unspecified) [2-(oxiran-2-ylmethoxymethyl)oxirane] displayed a flash point of 64.00 °C.

For the compound `CC(C)OCC1CO1` (stereo unspecified) [2-(propan-2-yloxymethyl)oxirane], the flash point amounted to 33.00 °C.

Consider `C=C(C)C(=O)OCCNC(C)(C)C` [2-(tert-butylamino)ethyl 2-methylprop-2-enoate], for which the flash point is 96.00 °C.

On to `ClC(Cl)(Cl)C1CO1` (stereo unspecified) [2-(trichloromethyl)oxirane], for which the flash point was determined as 67.00 °C.

Take `CCCCCCCCCCOC(=O)c1ccccc1C(=O)OCCCCCCCC` [2-O-decyl 1-O-octyl benzene-1,2-dicarboxylate]: the flash point was 235.00 °C.

`CCOCCOCCOCCO` [2-[2-(2-ethoxyethoxy)ethoxy]ethanol] returned a flash point of 135.00 °C.

Compound `OCCOCCOCCO` [2-[2-(2-hydroxyethoxy)ethoxy]ethanol] gave a flash point of 166.00 °C.

`CC(O)COC(C)COC(C)CO` (stereo unspecified) [2-[2-(2-hydroxypropoxy)propoxy]propan-1-ol] yielded a flash point of 141.00 °C.

Regarding `CN(C)CCOCCN(C)C` [2-[2-(dimethylamino)ethoxy]-N,N-dimethylethanamine], the flash point was found to be 79.00 °C.

Regarding `CCCCOCCOCCOCCOCCO` [2-[2-[2-(2-butoxyethoxy)ethoxy]ethoxy]ethanol], the flash point turned out to be 166.00 °C.

As for `COCCOCCOCCOCCO` [2-[2-[2-(2-methoxyethoxy)ethoxy]ethoxy]ethanol], the flash point stood at 161.00 °C.

`CN(CCO)CCO` [2-[2-hydroxyethyl(methyl)amino]ethanol] returned a flash point of 127.00 °C.

In turn, `Cc1ccccc1OCC1CO1` (stereo unspecified) [2-[(2-methylphenoxy)methyl]oxirane] had a flash point of 93.00 °C.

`CC(C)(C)OCC1CO1` (stereo unspecified) [2-[(2-methylpropan-2-yl)oxymethyl]oxirane] had a flash point of 43.00 °C.

As for `c1cc(OCC2CO2)cc(OCC2CO2)c1` (stereo unspecified) [2-[[3-(oxiran-2-ylmethoxy)phenoxy]methyl]oxirane], the flash point is 177.00 °C.

As for `CC(=O)Oc1ccccc1C(=O)O` [2-acetyloxybenzoic acid], the flash point is 250.00 °C.

Take `CC(=O)OCC(C)OC(C)=O` (stereo unspecified) [2-acetyloxypropyl acetate]: the flash point is 86.00 °C.

In the case of `Nc1ccccc1C(=O)O` [2-aminobenzoic acid], the flash point came to 171.00 °C.

On to `NCCO` [2-aminoethanol], for which the flash point is 93.00 °C.

In turn, `Nc1ccccc1O` [2-aminophenol] showed a flash point of 168.00 °C.

Consider `Oc1ccc(Cl)cc1Cc1ccccc1` [2-benzyl-4-chlorophenol], for which the flash point was 188.00 °C.

As to `O=C(O)C(Cl)Br` (stereo unspecified) [2-bromo-2-chloroacetic acid], the flash point was determined as 110.00 °C.

Compound `CC(C)(C)Br` [2-bromo-2-methylpropane] came in with a flash point of -16.00 °C.

As to `O=[N+]([O-])C(Br)(CO)CO` [2-bromo-2-nitropropane-1,3-diol], the flash point came out at 167.00 °C.

Regarding `O=C(O)CBr` [2-bromoacetic acid], the flash point is 113.00 °C.

With `CCC(C)Br` (stereo unspecified) [2-bromobutane], the flash point was 21.00 °C.

The compound `CCCC(C)Br` (stereo unspecified) [2-bromopentane] displayed a flash point of 21.00 °C.

As for `CCCCOCCOC(C)=O` [2-butoxyethyl acetate], the flash point stood at 71.00 °C.

`O=C(CCl)c1ccccc1` [2-chloro-1-phenylethanone] returned a flash point of 118.00 °C.

For the compound `CC(C)(Cl)[N+](=O)[O-]` [2-chloro-2-nitropropane], the flash point was determined as 57.00 °C.

Compound `C=CCN(CC=C)C(=O)CCl` [2-chloro-N,N-bis(prop-2-enyl)acetamide] displayed a flash point of 186.00 °C.

In the case of `O=C(O)CCl` [2-chloroacetic acid], the flash point is 150.00 °C.

On to `Nc1ccccc1Cl` [2-chloroaniline], for which the flash point is 98.00 °C.

`C=C(Cl)C#N` [2-chloroprop-2-enenitrile] yielded a flash point of 7.00 °C.

For the compound `CC(C)Cl` [2-chloropropane], the flash point was -32.00 °C.

Regarding `CC(Cl)C(=O)O` (stereo unspecified) [2-chloropropanoic acid], the flash point turned out to be 107.00 °C.

`C=CC(=O)OCCC#N` [2-cyanoethyl prop-2-enoate]: the flash point turned out to be 124.00 °C.

On to `O=C1c2ccccc2C(=O)N1SC1CCCCC1` [2-cyclohexylsulfanylisoindole-1,3-dione], for which the flash point was 177.00 °C.

In the case of `CNC(=O)CSP(=S)(OC)OC` [2-dimethoxyphosphinothioylsulfanyl-N-methylacetamide], the flash point worked out at 51.00 °C.

`CCCCCCCCCCCCc1ccccc1O` [2-dodecylphenol] gave a flash point of 163.00 °C.

`C=CC1CO1` (stereo unspecified) [2-ethenyloxirane] gave a flash point of -46.00 °C.

`CCOC(C)(C)C` [2-ethoxy-2-methylpropane] had a flash point of -19.00 °C.

`CCOCC(=O)O` [2-ethoxyacetic acid] showed a flash point of 98.00 °C.

Turning to `CCC(CO)(CO)CO` [2-ethyl-2-(hydroxymethyl)propane-1,3-diol], the flash point was 172.00 °C.

The compound `CCc1ccccc1N` [2-ethylaniline] registered a flash point of 85.00 °C.

With `C=CC(=O)OCC(CC)CC` [2-ethylbutyl prop-2-enoate], the flash point came out at 52.00 °C.

`CCCC=C(C=O)CC` [2-ethylhex-2-enal] displayed a flash point of 68.00 °C.

Turning to `C=C(C)C(=O)OCC(CC)CCCC` (stereo unspecified) [2-ethylhexyl 2-methylprop-2-enoate], the flash point is 92.00 °C.

With `CCCCC(CC)COC(C)=O` (stereo unspecified) [2-ethylhexyl acetate], the flash point worked out at 88.00 °C.

On to `CCc1ccc2ccccc2c1` [2-ethylnaphthalene], for which the flash point was determined as 104.00 °C.
